Experiment [1] addresses T1, Cathepsin D (Bos taurus, UniProt P80209).
T1 sequence (P80209 whole entry): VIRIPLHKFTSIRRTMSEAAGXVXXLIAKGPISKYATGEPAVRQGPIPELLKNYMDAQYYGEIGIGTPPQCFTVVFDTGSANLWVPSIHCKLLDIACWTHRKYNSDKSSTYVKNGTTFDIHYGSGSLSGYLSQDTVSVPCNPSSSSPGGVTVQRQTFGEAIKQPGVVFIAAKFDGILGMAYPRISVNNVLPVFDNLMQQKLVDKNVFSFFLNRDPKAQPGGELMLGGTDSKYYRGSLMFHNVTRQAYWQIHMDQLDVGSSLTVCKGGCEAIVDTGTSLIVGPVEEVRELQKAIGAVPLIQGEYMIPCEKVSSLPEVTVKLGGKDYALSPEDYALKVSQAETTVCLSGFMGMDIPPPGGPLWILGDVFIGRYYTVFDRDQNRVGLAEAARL
Put plainly: In vitro inhibition of onversion of hemoglobin by commercially purchased bovine spleen Cathepsin D. In kind it is functional.

Experiment [2] concerns the target T1, Cathepsin D. Kind of experiment: Inhibition of conversion of hemoglobin by commercially purchased bovine spleen cathepsin D.
Another experiment deals with T2, Renin (Homo sapiens, UniProt P00797).
T2 sequence (P00797 whole entry): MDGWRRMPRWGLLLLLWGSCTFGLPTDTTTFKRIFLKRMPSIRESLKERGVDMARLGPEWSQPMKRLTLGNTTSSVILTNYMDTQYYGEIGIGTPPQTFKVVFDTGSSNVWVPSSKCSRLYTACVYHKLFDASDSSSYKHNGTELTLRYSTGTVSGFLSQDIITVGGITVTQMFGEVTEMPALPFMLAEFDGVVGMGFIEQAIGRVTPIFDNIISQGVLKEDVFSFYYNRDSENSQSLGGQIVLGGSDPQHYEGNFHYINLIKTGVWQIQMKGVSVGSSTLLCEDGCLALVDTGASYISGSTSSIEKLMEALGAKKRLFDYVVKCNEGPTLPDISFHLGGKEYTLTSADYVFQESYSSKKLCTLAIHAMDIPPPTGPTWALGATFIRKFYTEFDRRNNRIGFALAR
Kind of experiment: In vitro inhibition of partially purified human renin at pH 6.0.

SMILES strings stand for the structures.

For orientation: IC50 means the concentration at which inhibition is half-maximal. As for `CC[C@@H](C)[C@H](NC(=O)OC(C)(C)C)C(=O)N[C@H](C(=O)N[C@@H](CC(C)C)C(O)CC(=O)NCCCCCCO)[C@H](C)CC` (some centres undefined), the IC50 against Cathepsin D [1] came to 68 nM.

Consider `CCC(C)C(NC(=O)C(NC(=O)OC(C)(C)C)C(C)(C)C)C(=O)NC(CC(C)C)C(O)CC(=O)O` (centres undefined), for which the IC50 was 1100 nM on Cathepsin D [2] and greater than 10000 nM at Renin.

Consider `CC[C@@H](C)[C@H](NC(=O)OC(C)(C)C)C(=O)N[C@H](C(=O)N[C@@H](CC(C)C)C(O)CC(=O)N(C)CC(C)C)[C@H](C)CC` (some centres undefined), for which the results for the IC50 against Cathepsin D [2] and at Renin were 58 nM and greater than 10000 nM, respectively.

In the case of `CC[C@H](C)[C@H](NC(=O)[C@H](CC1CCCCC1)NC(=O)OC(C)(C)C)C(=O)N[C@@H](Cc1c[nH]c2ccccc12)[C@@H](O)[C@@H](O)CC(C)C`, the IC50 against Cathepsin D [2] is 210 nM; against Renin, greater than 10000 nM.

Regarding `CCC(C)[C@H](NC(=O)OC(C)(C)C)C(=O)N[C@H](C(=O)N[C@@H](CC(C)C)C(O)CC(=O)O)C(C)CC` (some centres undefined), the figures for the IC50 against Cathepsin D [2] and against Renin were 2600 nM and greater than 10000 nM, respectively.

The values above are taken from ChEMBL document CHEMBL1126596, “Potent and selective inhibitors of an aspartyl protease-like endothelin converting enzyme identified in rat lung” (J Med Chem, 1993).
